Data reported in patent US10947188B2, “Small molecule ferroptosis inducers” (THE TRUSTEES OF COLUMBIA UNIVERSITY IN THE CITY OF NEW YORK, priority 2016, dated 2021).

Experiments:
BJeLR = assay: Modulatory profiling: Alamar Blue viability, lethal compound cotreated with death modulator (EC50, AUC); type: cell-based, human; design: AUC, modulator BJ.Gd3+ / AUC, modulator BJ.LNAME / AUC, modulator BJ.Lmin / AUC, modulator BJ.3MA / AUC, modulator BJ.ALLN / AUC, modulator BJ.Boc D / AUC, modulator BJ.CHX / AUC, modulator BJ.Co2+ / AUC, modulator BJ.Nec-1 / AUC, modulator BJ.Pepstatin / AUC, modulator BJ.TLCK / AUC, modulator BJ.atoc / AUC, modulator BJ.trolox / AUC, modulator BJ.zVAD: unit not given beside the values; conditions: BJeLR cells, modulatory profile value (AUC); for AUC, modulator BJ.3MA: lethal compound cotreated with modulator 3MA; for AUC, modulator BJ.ALLN: lethal compound cotreated with modulator ALLN; for AUC, modulator BJ.Boc D: lethal compound cotreated with modulator Boc D; for AUC, modulator BJ.CHX: lethal compound cotreated with modulator CHX; for AUC, modulator BJ.Co2+: lethal compound cotreated with modulator Co2+; for AUC, modulator BJ.DPQ: lethal compound cotreated with modulator DPQ; for AUC, modulator BJ.Gd3+: lethal compound cotreated with modulator Gd3+; for AUC, modulator BJ.LNAME: lethal compound cotreated with modulator LNAME; for AUC, modulator BJ.Lmin/NAD+: lethal compound cotreated with modulator Lmin/NAD+; for AUC, modulator BJ.Lmin: lethal compound cotreated with modulator Lmin; for AUC, modulator BJ.NAD+: lethal compound cotreated with modulator NAD+; for AUC, modulator BJ.NMMA: lethal compound cotreated with modulator NMMA; for AUC, modulator BJ.Nec-1: lethal compound cotreated with modulator Nec-1; for AUC, modulator BJ.Pepstatin: lethal compound cotreated with modulator Pepstatin; for AUC, modulator BJ.TLCK: lethal compound cotreated with modulator TLCK; on AUC, modulator BJ.3MA: reference of the scale not given here; on AUC, modulator BJ.ALLN: reference of the scale not given here; on AUC, modulator BJ.Boc D: reference of the scale not given here; on AUC, modulator BJ.CHX: reference of the scale not given here; on AUC, modulator BJ.Co2+: reference of the scale not given here; on AUC, modulator BJ.DPQ: reference of the scale not given here; on AUC, modulator BJ.Gd3+: reference of the scale not given here; on AUC, modulator BJ.LNAME: reference of the scale not given here; on AUC, modulator BJ.NAD+: reference of the scale not given here; on AUC, modulator BJ.NMMA: reference of the scale not given here; on AUC, modulator BJ.Nec-1: reference of the scale not given here; on AUC, modulator BJ.Pepstatin: reference of the scale not given here; on AUC, modulator BJ.TLCK: reference of the scale not given here
HT-1080 = assay: as above; type: cell-based; design: AUC, modulator HT.3MA / AUC, modulator HT.ALLN / AUC HT.ATA / AUC HT.ActD / AUC HT.BHA / AUC HT.BHT / AUC HT.BocD / AUC HT.CHX / AUC HT.Co2+ / AUC HT.DPQ / AUC HT.EGTA / AUC HT.Lmim / AUC HT.NAD+ / AUC HT.Nec-1 / AUC HT.SP600125 / AUC HT.TLCK / AUC HT.U0126: unit not given beside the values; conditions: for AUC HT.ATA: HT-1080, modulator ATA; for AUC HT.ActD: HT-1080, modulator ActD; for AUC HT.BHA: HT-1080, modulator BHA; for AUC HT.BHT: HT-1080, modulator BHT; for AUC HT.BocD: HT-1080, modulator BocD; for AUC HT.CHX: HT-1080, modulator CHX; for AUC HT.Co2+: HT-1080, modulator Co2+; for AUC HT.CspA: HT-1080, modulator CspA; for AUC HT.DPQ: HT-1080, modulator DPQ; for AUC HT.EGTA: HT-1080, modulator EGTA; for AUC HT.Gd3+: HT-1080, modulator Gd3+; for AUC HT.LNAME: HT-1080, modulator LNAME; for AUC HT.Lmim: HT-1080, modulator Lmim; for AUC HT.NAD+: HT-1080, modulator NAD+; for AUC HT.NMMA: HT-1080, modulator NMMA; for HT.atoc (AUC) / HT.bCarotene (AUC) / HT.deferox (AUC) / HT.digoxin (AUC) / HT.trolox (AUC) / HT.zVAD (AUC): HT-1080; for HT.atoc (AUC): modulator atoc; for HT.bCarotene (AUC): modulator bCarotene; for HT.deferox (AUC): modulator deferox; for HT.digoxin (AUC): modulator digoxin; for HT.trolox (AUC): modulator trolox; for HT.zVAD (AUC): modulator zVAD; on AUC HT.BHA: reference of the scale not given here; on AUC HT.EGTA: reference of the scale not given here

| Structure (SMILES) | AUC, modulator BJ.3MA (BJeLR) | AUC, modulator BJ.ALLN (BJeLR) | AUC, modulator BJ.Boc D (BJeLR) | AUC, modulator BJ.CHX (BJeLR) | AUC, modulator BJ.Co2+ (BJeLR) | AUC, modulator BJ.DPQ (BJeLR) | AUC, modulator BJ.Gd3+ (BJeLR) | AUC, modulator BJ.LNAME (BJeLR) | AUC, modulator BJ.Lmin/NAD+ (BJeLR) | AUC, modulator BJ.Lmin (BJeLR) | AUC, modulator BJ.NAD+ (BJeLR) | AUC, modulator BJ.NMMA (BJeLR) | AUC, modulator BJ.Nec-1 (BJeLR) | AUC, modulator BJ.Pepstatin (BJeLR) | AUC, modulator BJ.TLCK (BJeLR) | AUC HT.ATA (HT-1080) | AUC HT.ActD (HT-1080) | AUC HT.BHA (HT-1080) | AUC HT.BHT (HT-1080) | AUC HT.BocD (HT-1080) | further results |
| --- | --- | --- | --- | --- | --- | --- | --- | --- | --- | --- | --- | --- | --- | --- | --- | --- | --- | --- | --- | --- | --- |
| Cc1[nH]c2c(ccc3ccccc32)c1C1C(CCN)C1(C)C (stereo not drawn) [CIL74] | 0.03615 | −0.02536 | 0.04324 | 0.01466 | 0.2135 | −0.02906 | 0.02963 | 0.001619 | 0.07154 | 0.007766 | −0.05906 | 0.01059 | −0.02489 | 0.08294 | −0.02942 | 0.01362 | 0.02636 | −0.08659 | −0.04572 | 0.01242 | AUC HT.CHX (HT-1080): 0.02524; AUC HT.Co2+ (HT-1080): 0.03244; AUC HT.CspA (HT-1080): −0.004622; AUC HT.DPQ (HT-1080): 0.04847; AUC HT.EGTA (HT-1080): −0.02674; AUC HT.Gd3+ (HT-1080): −0.008213; AUC HT.LNAME (HT-1080): 0.01925; AUC HT.Lmim (HT-1080): 0.02034; AUC HT.NAD+ (HT-1080): 0.07664; AUC HT.NMMA (HT-1080): 9.3282E−05; HT.atoc (AUC) (HT-1080): 0.07412; HT.bCarotene (AUC) (HT-1080): −0.02032; HT.deferox (AUC) (HT-1080): −0.008945; HT.digoxin (AUC) (HT-1080): −0.02586; HT.trolox (AUC) (HT-1080): −0.0236; HT.zVAD (AUC) (HT-1080): 0.01022 |
| C=CCC1(Cl)C(=O)C(Cl)=C(n2ccnc2)C1(OC)OC (stereo not drawn) [CIL76] | −0.03638 | −0.0536 | 0.03237 | 0.2608 | 0.1676 | 0.007351 | 0.01565 | 0.004345 | −0.02656 | −0.005829 | 0.004895 | −0.01937 | −0.0283 | 0.0213 | −0.008689 | 0.04513 | 0.04286 | 0.000578 | −0.08655 | −0.02767 | AUC HT.CHX (HT-1080): 0.1505; AUC HT.Co2+ (HT-1080): 0.1531; AUC HT.CspA (HT-1080): −0.005998; AUC HT.DPQ (HT-1080): 0.01554; AUC HT.EGTA (HT-1080): −0.02151; AUC HT.Gd3+ (HT-1080): −0.0293; AUC HT.LNAME (HT-1080): 0.0222; AUC HT.Lmim (HT-1080): 0.007964; AUC HT.NAD+ (HT-1080): 0.00781; AUC HT.NMMA (HT-1080): −0.007942; HT.atoc (AUC) (HT-1080): 0.003265; HT.bCarotene (AUC) (HT-1080): −0.00713; HT.deferox (AUC) (HT-1080): 0.1376; HT.digoxin (AUC) (HT-1080): 0.01032; HT.trolox (AUC) (HT-1080): −0.02707; HT.zVAD (AUC) (HT-1080): 0.032 |
